The record followed here is patent US20190048052A1, “ANTI-MICROBIAL PEPTIDES AND COATINGS” (Board of Regents of the University of Nebraska, priority 2016, published 2019).

One series concerns the target T1, S. aureus V8 protease (Staphylococcus aureus, UniProt P0C1U8).
T1 construct: purchased Sigma or Fisher
Format: in vitro ADME. Particulars: peptide:protease 40:1, 24 hours, 37° C. The protocol: When degraded, no peptide band could be detected on a 5% stacking/18% resolving tricine gel after 2-4 hours incubation at 37° C. Briefly, a solution (100 μL) containing 250 μM peptide and 6.25 μM protease (Sigma or Fisher) in 10 mM PBS buffer (pH 8) was incubated at 37° C. (peptide/protease molar ratio, 40:1). Aliquots (10 μL) of the reaction solutions were taken at 0, 6, and 24 hours and immediately mixed with 10 μL of 2× SDS loading buffer followed by boiling for 5 minutes to stop the reaction. […] After electrophoresis, the gel was stained by Brilliant Blue R-250 (Fisher) and destained to view the peptide bands.

Series [1] has as its system S. aureus USA300. In words: Killing kinetics by colony counting. The conditions noted are these: 10^5 CFU S. aureus USA300, colony counting. Format: cell-based, Staphylococcus aureus. The protocol: Killing kinetic experiments were conducted similar to antibacterial assays described above with the following modifications (Wang et al. (2012) Antimicrob. Agents Chemother., 56:845-856). Aliquots of cultures (10^5 CFU) treated with TetraF2W peptides were taken at 15, 30, 50, 90, and 120 minutes, diluted 100-fold, and plated on Luria-Bertani (LB) agar plates. Colonies were counted after overnight incubation at 37° C.

Series [2] relates to S. aureus USA300. The experiment in a line: Propidium iodide membrane permeation. The format is cell-based, Staphylococcus aureus. The protocol: Fluorescence spectroscopy was also used to follow bacterial killing. In brief, a serially diluted 10× peptide (10 μL) was made in 96-well coming COSTAR microtiter plates. Propidium iodide (2 μL) was added at 50 μM to each well which was finally incubated with S. aureus USA300 bacteria (88 μL at a final OD600 ˜0.1) with continuous shaking at 100 rpm, 37° C. in a FLUOstar® Omega (BMG LABTECH Inc, NC) microplate reader. The plates were read every 5 minutes for a total duration of 2 hours with excitation and emission wavelengths at 584 nm and 620 nm respectively. Plots were made using averaged readings from duplicated experiments after subtraction of the media control.

Series [3] concerns S. aureus USA300. In words: Inhibition of biofilm growth (XTT). Format: cell-based, Staphylococcus aureus. More on the design: unit of the concentration uncertain. Here is the method: Three types of experiments were conducted to evaluate the anti-biofilm activity of these peptides against S. aureus USA300, which was grown in tryptic soy broth (TSB) media in flat bottom, 96-well, polystyrene microtiter plates (Mishra et al. (2015) RSC Advances 5:59758-59769; Dean et al. (2011) BMC Microbiol., 11:114).
The second experiment evaluates the ability of the peptide to inhibit biofilm formation of S. aureus USA300 in 24 hours. In brief, S. aureus USA300 (10^5 CFU/mL) was made in fresh TSB media from exponentially growing bacteria. 180 μL of this bacterial culture was added to each well of the microtiter plates containing 20 μL of 10× peptide solution.

A further series relates to human red blood cells. In words: Hemolytic ability (Example 3). Format: cell-based. Particulars: concentration that causes 50% hemolysis. Summed up: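 Human red blood cells were washed three times in PBS, diluted to 2%, exposed to peptide for one hour at 37 °C and centrifuged. Hemoglobin in the supernatant was read at 545 nm. Percent lysis is relative to 1% Triton X-100 (100%) and PBS (0%).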

Series [4] has as its system S. aureus USA300. The experiment in a line: Propidium iodide membrane permeation (Example 3). The format is cell-based, Staphylococcus aureus. The conditions noted are these: 3.1 μM. Here is the method: FIGS. 15A and 15B show the growth inhibition (FIG. 15A) and propidium iodide-based membrane permeation (FIG. 15B) of S. aureus USA300 in TSB media by 3.1 μM of TetraF2W-RR and its single arginine variants (Table 8) at 37° C. with shaking at 100 rpm.
Fluorescence spectroscopy was also used to follow bacterial killing. In brief, μL of serially diluted 10× peptide concentrations were done in 96-well coming COSTAR microtiter plates. Propidium iodide at a fixed concentration of 20 μM per well was added to each well which was finally incubated with 88 μL of S. aureus USA300 (with a final OD600 0.1) with continuous shaking at 100 rpm with meander corner well shaking, 37° C. in a FLUOstar® Omega (BMG LABTECH Inc., NC) microplate reader. The plates were read every 5 minutes for a total duration of 2 hours with excitation and emission wavelengths at 584 nm and 620 nm, respectively.

The test system of series [5] is S. aureus USA300. Format: cell-based, Staphylococcus aureus. Summed up: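 USA300 (10^5 CFU/mL) biofilms grown statically in TSB for 24 h at 37° C, washed, then exposed to peptide in fresh TSB for another 24 h at 37° C. Residual biomass read by crystal violet staining at 600 nm; viable cells by 10% XTT, 2 h at 37° C, absorbance 450 nm. Biofilm reduction expressed as percent of untreated wells.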

Residues, ends and D or L forms follow the SMILES beside them.

T1 sequence (P0C1U8 69-336): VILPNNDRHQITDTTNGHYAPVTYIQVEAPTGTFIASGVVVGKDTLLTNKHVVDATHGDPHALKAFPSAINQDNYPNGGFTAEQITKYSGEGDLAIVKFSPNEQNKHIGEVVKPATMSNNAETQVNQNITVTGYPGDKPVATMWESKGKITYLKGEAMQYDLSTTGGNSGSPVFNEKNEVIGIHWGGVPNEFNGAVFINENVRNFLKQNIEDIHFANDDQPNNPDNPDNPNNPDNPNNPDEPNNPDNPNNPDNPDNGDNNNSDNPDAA

As to `CC[C@H](C)[C@H](NC(=O)[C@H](CCCCN)NC(=O)[C@H](CCCNC(=N)N)NC(=O)[C@H](CC(C)C)NC(=O)[C@H](Cc1c[nH]c2ccccc12)NC(=O)[C@H](Cc1c[nH]c2ccccc12)NC(=O)[C@@H](N)Cc1c[nH]c2ccccc12)C(=O)N[C@@H](Cc1c[nH]c2ccccc12)C(N)=O` [TetraF2W-RK, WWWLRKIW] (H-WWWLRKIW-NH2; N-terminus assumed), the “stability to S. aureus V8 protease” value on S. aureus V8 protease was “not cut”.

Turning to `CC[C@H](C)[C@H](NC(=O)[C@H](CCCNC(=N)N)NC(=O)[C@H](CCCNC(=N)N)NC(=O)[C@H](CC(C)C)NC(=O)[C@H](Cc1c[nH]c2ccccc12)NC(=O)[C@H](Cc1c[nH]c2ccccc12)NC(=O)[C@@H](N)Cc1c[nH]c2ccccc12)C(=O)N[C@@H](Cc1c[nH]c2ccccc12)C(N)=O` [TetraF2W-RR, WWWLRRIW] (H-WWWLRRIW-NH2; N-terminus assumed), the “time in which all the bacteria were killed” value in the series with S. aureus USA300 [1] stood at 90 min. In the series on S. aureus USA300 [2], the “propidium iodide fluorescence change after treatment” value is reported as “most effective in damaging the membranes”. In the series with S. aureus USA300 [3] (6.25 (unit uncertain) as printed), the “inhibition of biofilm growth” value is listed as “actively inhibited biofilm growth”. The “inhibition of biofilm formation” value in the series on S. aureus USA300 [3] (25 (unit uncertain) as printed) is listed as “completely inhibited”. Also, the HL50 in the series with human red blood cells worked out at 35 µM. Also, the “membrane permeation by propidium iodide” value in the series with S. aureus USA300 [4] was “most potent”. In the series on S. aureus USA300 [5] (6.2 μM), the “killing in preformed biofilms (XTT)” value is listed as “only the WT was active”. Also, the “killing in preformed biofilms (XTT), words” value with S. aureus USA300 [5] (12.5 μM) was “nearly all S. aureus USA300 was eliminated”.
